{"source": "patent US20240239848A1", "about": "“HOLOTHURIAN-DERIVED ACTIVE PEPTIDE WITH IMMUNE ACTIVITY, PREPARATION METHOD AND APPLICATION THEREOF” (BOHAI UNIVERSITY, priority 2023, published 2024)", "assay_type_in_all_cases": "cell-based, mouse", "key": {"[1]": {"test_system": "macrophage RAW264.7 induced by LPS", "assay": "NO release from macrophage RAW264.7 induced by LPS (NO kit)", "method": "(2) Influence of Synthetic Peptide on NO Release from Macrophage RAW264.7 Induced by LPS\n(§1) Blank group: macrophage RAW264.7 cells are inoculated into a 96-well plate and cultured for 24 h.\nInduced injury group: after cell culture, cells in blank group are treated with 100 ng/ml LPS for 24 h, and then treated with synthetic peptides with different concentrations (50-200 μg/mL) for 24 h.\n(§2) Negative control group: after cell culture in blank group, cells are treated with 100 ng/mL LPS for 24 h.\nThe NO release amount of different components is measured by NO kit. After 24 hours of treatment with synthetic peptides with different concentrations, the NO release amount of macrophage RAW264.7 induced by LPS is shown in FIG. 3."}, "macrophage RAW264.7": {"test_system": "macrophage RAW264.7", "assay": "Survival rate of macrophages RAW264.7 (CCK-8 method)", "details": "RAW264.7, synthetic peptide 50-200 μg/mL, 24 h", "description": "Blank group: Macrophages RAW264.7 are inoculated into 96-well plates and cultured for 24 h.\nSample group: synthetic peptides with different concentrations (50-200 μg/mL) are used for treating for 24 h.\nThe CCK-8 method is used to measure the absorbance values of different components, and the survival rate of macrophage RAW264.7 is calculated according to the absorbance values."}, "TNF-α": {"test_system": "TNF-α", "assay": "TNF-α secretion of macrophage RAW264.7 induced by LPS (ELISA)", "details": "LPS-induced RAW264.7, peptide 200 μg/mL", "method": "(§3) (2) Influence of IIENAVQ on the secretion of cytokines (IL-1β, TNF-α) of macrophage RAW264.7 induced by LPS\nas §1\n(§4) Induced injury group: after the cells in the blank group are cultured, the cells are treated with 100 ng/mL LPS for 24 h, and then treated with different concentrations (50-200 μg/mL) of IIENAVQ for 24 h.\nas §2\n(§5) The cytokines of different components are determined by ELISA kit.\n(§6) The final detection results of (1) and (2) are illustrated in FIG. 4A and FIG. 4B."}, "IL-1β": {"test_system": "IL-1β", "assay": "IL-1β secretion of macrophage RAW264.7 induced by LPS (ELISA)", "details": "LPS-induced RAW264.7, peptide 200 μg/mL", "method": "as §3, §1, §4, §2, §5, §6"}}, "note": "No end group written: not given here."}
{"substance": "IIENAVQ [IIENAVQ]", "values": [{"measurement": "release of NO from macrophages RAW264.7 induced by LPS, compared with LPS-negative control group", "setting": "[1]; 100 ng/mL LPS 24 h, then peptide 50-200 μg/mL 24 h", "value": "significantly reduces"}, {"measurement": "final concentration of NO", "setting": "[1]; LPS-induced RAW264.7, peptide 200 μg/mL", "value": "27.99 ± 0.33", "unit": "µmol/L"}, {"measurement": "cell survival rate", "setting": "macrophage RAW264.7", "value": 116.88, "unit": "%"}, {"measurement": "inhibition rate of TNF-α secretion", "setting": "TNF-α", "value": 60.24, "unit": "%"}, {"measurement": "secretion of cytokine TNF-α", "setting": "TNF-α", "value": "70.78 ± 5.55", "unit": "pg/mL"}, {"measurement": "inhibition rate of IL-1β secretion", "setting": "IL-1β", "value": 51.54, "unit": "%"}, {"measurement": "secretion of cytokine IL-1β", "setting": "IL-1β", "value": "28.73 ± 1.12", "unit": "pg/mL"}]}
